Assay results from patent US6974806B2, “Lipid-rich plaque inhibitors” (Takeda Pharmaceutical Company Limited, priority 2000, dated 2005).

Compound | melting point
Cc1cc2oc(=O)c(CC(=O)Nc3ccc(F)cc3C(F)(F)F)c(-c3ccccc3)c2cc1Br [Example 177, 2-(6-bromo-7-methyl-2-oxo-4-phenyl-2H-chromen-3-yl)-N-[4-fluoro-2-(trifluoromethyl)phenyl]acetamide] | 237 to 238 °C
CC(C)c1cccc(C(C)C)c1NC(=O)Cc1c(-c2ccccc2)c2cc(F)c(F)cc2oc1=O [Example 42] | 255 to 256 °C
CCOC(=O)C=Cc1cccc(-c2c(CC(=O)Nc3ccc(F)cc3C(F)(F)F)c(=O)oc3cc(Cl)c(C)cc23)c1 [Example 337] | 193 to 196 °C
O=C(Cc1c(-c2ccccc2)c2cc3c(cc2oc1=O)C(=O)CC3)Nc1ccc(F)cc1C(F)(F)F [Example 88, 2-(2,8-dioxo-4-phenyl-2,6,7,8-tetrahydrocyclopenta[g]chromen-3-yl)-N-[4-fluoro-2-(trifluoromethyl)phenyl]-acetamide] | 180 to 183 °C
COc1cc(O)cc(OC)c1NC(=O)Cc1c(-c2ccccc2)c2cc3c(cc2oc1=O)CCC3 [Example 10] | 160 °C (dec.)
Cc1cc2oc(=O)c(CC(=O)Nc3c(C(C)C)cccc3C(C)C)c(-c3ccccc3Cl)c2cc1Cl [Example 25] | 245 to 246 °C
CC(C)c1cccc(C(C)C)c1NC(=O)Cc1c(-c2ccccc2)c2cc3c(cc2oc1=O)CCC3 [Example 3] | 261 to 263 °C
O=C(Cc1c(-c2ccccc2)c2cc(Cl)c(CO)cc2oc1=O)Nc1ccc(Cl)cc1C(F)(F)F [Example 87] | 220 to 222 °C
O=C(Cc1c(-c2ccccc2)c2cc3c(cc2oc1=O)CCC3)Nc1ccc(Cl)cc1OC(F)(F)F [Example 19] | 189 to 191 °C
COc1cccc(OC)c1NC(=O)Cc1c(-c2ccccc2)c2cc(CN3CCOCC3)c(Cl)cc2oc1=O [Example 71] | 209 to 211 °C
O=C(Cc1c(-c2ccccc2)c2cc3c(cc2oc1=O)CCC3)Nc1c(F)cccc1C(F)(F)F [Example 18] | 194 to 196 °C
CC(C)c1cccc(C(C)C)c1NC(=O)Cc1c(-c2ccccc2)c2cc(Cl)c(Cl)cc2oc1=O [Example 39] | 289 to 290 °C
COc1cccc(O)c1NC(=O)Cc1c(-c2ccccc2)c2cc3c(cc2oc1=O)CCC3 [Example 9] | 179 to 181 °C
CCc1ccccc1NC(=O)Cc1c(-c2ccccc2)c2cc3c(cc2oc1=O)CCC3 [Example 6] | 234 to 237 °C
CC(=O)OCc1cc2c(-c3ccccc3)c(CC(=O)Nc3c(C(C)C)cccc3C(C)C)c(=O)oc2cc1Cl [Example 81, [7-chloro-3-{2-(2,6-isopropylanilino)-2-oxoethyl}-2-oxo-4-phenyl-2H-chromen-6-yl]]methyl acetate] | 290 to 292 °C
COc1cccc(OC)c1NC(=O)Cc1c(-c2ccccc2C)c2cc(Cl)c(C)cc2oc1=O [Example 23] | 176 to 177 °C
Cc1cc2oc(=O)c(CC(=O)Nc3c(C(C)C)cccc3C(C)C)c(-c3ccccc3)c2cc1C [Example 31] | 252 to 253 °C
CCc1cccc(CC)c1NC(=O)Cc1c(-c2ccccc2)c2cc(C)c(C)cc2oc1=O [Example 30] | 259 to 260 °C
COc1cccc(OC)c1NC(=O)Cc1c(-c2ccccc2)c2cc(Cl)c(Cl)c(Cl)c2oc1=O [Example 40] | 289 to 291 °C
O=C(Cc1c(-c2ccccc2)c2cc(CO)c(Cl)cc2oc1=O)Nc1ccc(Cl)cc1C(F)(F)F [Example 85] | 241 to 243 °C
COc1cc(C)cc(OC)c1NC(=O)Cc1c(-c2ccccc2)c2cc3c(cc2oc1=O)CCC3 [Example 8] | 237 to 239 °C
CCOc1cccc(OCC)c1NC(=O)Cc1c(-c2ccccc2)c2cc(C)c(C)cc2oc1=O [Example 29] | 230 to 231 °C
Cc1cc2c(-c3cccnc3)c(CC(=O)Nc3ccc(Cl)cc3C(F)(F)F)c(=O)oc2cc1Cl [Example 329] | 212 to 215 °C
O=C(Cc1c(-c2ccccc2)c2cc(CN3CCN(c4ncccn4)CC3)c(Cl)cc2oc1=O)Nc1ccc(Cl)cc1C(F)(F)F [Example 272] | 214 to 217 °C
CCOc1cccc(OCC)c1NC(=O)Cc1c(-c2ccccc2)c2cc(Cl)c(C)cc2oc1=O [Example 24] | 235 to 236 °C
CCOc1cccc(OCC)c1NC(=O)Cc1c(-c2ccccc2)c2cc(Cl)c(Cl)cc2oc1=O [Example 37] | 246 to 247 °C
O=C(Cc1c(-c2ccccc2)c2cc(CN3CCOCC3)c(Cl)cc2oc1=O)Nc1ccc(Cl)cc1C(F)(F)F [Example 74, 2-[7-chloro-6-{(morpholin-4-yl)methyl}-2-oxo-4-phenyl-2H-chromen-3-yl]-N-(4-chloro-2-trifluoromethylphenyl)acetamide] | 205 to 207 °C
COc1cccc(OC)c1NC(=O)Cc1c(-c2ccccc2)c2cc(F)c(F)cc2oc1=O [Example 41] | 196 to 198 °C
CCOC(=O)C=Cc1cccc(-c2c(CC(=O)Nc3ccc(Cl)cc3C(F)(F)F)c(=O)oc3cc(Cl)c(C)cc23)c1 [Example 336] | 118 °C (dec.)

Results, then the compound that gave them:

melting point | Compound
250 to 251 °C | CCc1cccc(CC)c1NC(=O)Cc1c(-c2ccccc2)c2cc(Cl)c(C)cc2oc1=O [Example 26]
257 to 259 °C | O=C(Cc1c(-c2ccccc2)c2cc3c(cc2oc1=O)CCC3)Nc1c(Cl)cncc1Cl [Example 15, N-(3,5-dichloro-4-pyridyl)-2-(2-oxo-4-phenyl-2,6,7,8-tetrahydrocyclopenta[g]chromen-3-yl)acetamide]
247 to 249 °C | COc1cccc(OC)c1NC(=O)Cc1c(-c2ccccc2)c2cc(C)c(Cl)cc2oc1=O [Example 45]
205 to 207 °C | CNCc1cc2c(-c3ccccc3)c(CC(=O)Nc3ccc(Cl)cc3C(F)(F)F)c(=O)oc2cc1Cl [Example 180, 2-[6-[(methylamino)methyl]-7-chloro-2-oxo-4-phenyl-2H-chromen-3-yl]-N-[4-chloro-2-(trifluoromethyl)phenyl]acetamide]
246 to 247 °C | COc1cc2c(-c3ccccc3)c(CC(=O)Nc3ccc(Cl)cc3C(F)(F)F)c(=O)oc2cc1Cl [Example 178, 2-(7-chloro-6-methoxy-2-oxo-4-phenyl-2H-chromen-3-yl)-N-[4-chloro-2-(trifluoromethyl)phenyl]acetamide]
249 to 250 °C | COc1cccc(OC)c1NC(=O)Cc1c(-c2ccccc2)c2cc(Cl)c(Cl)cc2oc1=O [Example 36]
203 to 205 °C | O=C(Cc1c(-c2ccccc2)c2cc(CN3CCN(c4ncccn4)CC3)c(Cl)cc2oc1=O)Nc1ccc(F)cc1C(F)(F)F [Example 273]
208 °C (dec.) | COc1cccc(OC)c1NC(=O)Nc1oc2cc3c(cc2c1-c1ccccc1C)CCC3 [Example 102, N-(2,6-Dimethoxyphenyl)-N′-[3-(2-methylphenyl)-6,7-dihydro-5H-indeno[5,6-b]furan-2-yl]urea]
170 to 172 °C | COc1cc(O)c(NC(=O)Cc2c(-c3ccccc3)c3cc4c(cc3oc2=O)CCC4)c(OC)c1 [Example 11]
163 to 164 °C | CCN(CC)Cc1cc2c(-c3ccccc3)c(CC(=O)Nc3ccc(Cl)cc3C(F)(F)F)c(=O)oc2cc1Cl [Example 182]
216 to 219 °C | CCOc1cccc(OCC)c1NC(=O)Cc1c(-c2ccccc2)c2cc3c(cc2oc1=O)CCC3 [Example 2]
213 to 215 °C | Cc1cc2c(-c3cccnc3)c(CC(=O)Nc3ccc(F)cc3C(F)(F)F)c(=O)oc2cc1Cl [Example 330]
279 to 281 °C | CCc1cccc(CC)c1NC(=O)Cc1c(-c2ccccc2)c2cc3c(cc2oc1=O)CCC3 [Example 4]
221 to 223 °C | COc1cccc(OC)c1NC(=O)Cc1c(-c2ccccc2)c2cc(CN(C)C)c(Cl)cc2oc1=O [Example 70, 2-[7-chloro-6-{(dimethylamino)methyl}-2-oxo-4-phenyl-2H-chromen-3-yl]-N-(2,6-dimethoxyphenyl)acetamide]
280 to 282 °C | Cc1cc2c(-c3ccccc3)c(CC(=O)Nc3c(C(C)C)cccc3C(C)C)c(=O)oc2cc1Cl [Example 46]
186 to 187 °C | O=C(Cc1c(-c2ccccc2)c2cc3c(cc2oc1=O)CCC3)Nc1ccc(F)cc1C(F)(F)F [Example 20]
213 to 215 °C | COc1cccc(OC)c1NC(=O)Cc1c(-c2ccccc2)c2cc3c(cc2oc1=O)CCC3 [Example 1, N-(2,6-dimethoxyphenyl)-2-(2-oxo-4-phenyl-2,6,7,8-tetrahydrocyclopenta[g]chromen-3-yl)acetamide]
189 to 192 °C | O=C(Cc1c(-c2ccccc2)c2cc3c(cc2oc1=O)C(=O)CC3)Nc1ccc(Cl)cc1C(F)(F)F [Example 89]
231 to 232 °C | COc1cccc(OC)c1NC(=O)Cc1c(-c2ccccc2)c2cc(Cl)c(C)cc2oc1=O [Example 22]
226 to 227 °C | O=C(Cc1c(-c2ccccc2)c2cc(CO)ccc2oc1=O)Nc1ccc(Cl)cc1C(F)(F)F [Example 86]
301 to 303 °C | CC(C)c1cccc(C(C)C)c1NC(=O)Cc1c(-c2ccccc2)c2cc(CN(C)C)c(Cl)cc2oc1=O [Example 72]
224 to 226 °C | O=C(Cc1c(-c2ccccc2)c2cc3c(cc2oc1=O)CCC3)Nc1c(OC2CCCC2)cccc1OC1CCCC1 [Example 14]
247 to 249 °C | O=C(Cc1c(-c2ccccc2)c2cc3c(cc2oc1=O)CCC3)Nc1c(F)cc(F)cc1F [Example 17]
253 to 254 °C | O=C(Cc1c(-c2ccccc2)c2cc(F)c(F)cc2oc1=O)Nc1c(OC2CCCC2)cccc1OC1CCCC1 [Example 44]
229 to 231 °C | COc1cccc(OC)c1NC(=O)Cc1c(-c2ccccc2)c2cc(COC(C)=O)c(Cl)cc2oc1=O [Example 80, [7-chloro-3-{2-(2,6-dimethoxyanilino)-2-oxoethyl}-2-oxo-4-phenyl-2H-chromen-6-yl]methyl acetate]
186 to 187 °C | CC(=O)OCc1cc2c(-c3ccccc3)c(CC(=O)Nc3ccc(Cl)cc3C(F)(F)F)c(=O)oc2cc1Cl [Example 82, [7-chloro-3-{2-(4-chloro-2-trifluoromethylanilino)-2-oxoethyl}-2-oxo-4-phenyl-2H-chromen-6-yl]methyl acetate]
191 to 194 °C | O=C(Cc1c(-c2ccccc2)c2cc3c(cc2oc1=O)CCC3)Nc1ccccc1OC(F)(F)F [Example 12]
